# Results reported in EP2492354A1, “Method for identifying compounds useful in the treatment of photosensitive reflex epilepsy” (Institut National De La Recherche Agronomique (INRA), priority 2011, dated 2012).
# Assays:
# Fepi = assay: Intermittent Light Stimulation (ILS) induced seizures in the photosensitive reflex epileptic chicken model; format: in vivo
# Method: During 21 days, they were exposed to ILS (3 minutes) once a day.
# Behavioural activities were observed and time recorded for each phase of the paroxysmal manifestation during controlled intermittent light stimulation: • T0: ILS starts • T1 (time in seconds): neck myoclonus starts • T2 (time in seconds): convulsive phase starts • T3 (time in seconds): convulsive phase ends
# The first day they were tested for control and all had ILS induced seizures. […]
# During the last 10 days, none of the animals was treated.
# The influence of the treatment on the stimulus locked myoclonus and generalized convulsions of the photosensitive GRS was evaluated using generalized linear models implemented in the function glm of the software R, version 2.9.0. The number of seizures for each animal over a given phase of the experiment (with treatment and following treatment) was modeled using a binomial distribution, and linked to factors using the logit function. The delay for seizure initiation, the duration of the myoclonus and the duration of the convulsions were modeled using gamma distributions, and linked to the factors using the identity function. Sex was included as an additive co-factor in the analyses but not significant differences were found.
# [1] = cited from earlier work
# plasma proteins = conditions: cited from earlier work
structure (smiles),measurement,setting,value
CC[C@@H](C(N)=O)N1CCCC1=O [(S)-a-ethyl-2-oxo-1-pyrrolidine acetamide],anticonvulsant effect,Fepi; chicken model of the invention,has an anticonvulsant effect
same,persistence of the effect after the injection period,Fepi; last 10 days without treatment,the effect partially persisting few days after the injection period
same,seizure duration (on average),"Fepi; treated (50, 100 or 200 mg/Kg) homozygous, placebo 16.2 s, p-value 1 e-08",10.7 s
same,dose range over which the pharmacokinetics are linear,[1]; in vivo,500 to 5000 mg
same,time to peak plasma concentrations,[1]; oral administration to fasted subjects,one
same,decrease of Cmax by food,"[1]; oral, with food",20%
same,delay of Tmax by food,"[1]; oral, with food",1.5 h
same,oral bioavailability,[1]; tablets,100%
same,time to steady state,[1]; twice-daily dosing,2 days
same,bound to plasma proteins,plasma proteins,less than 10%
